Test results: patent US5523314A, “Compounds useful as hypoglycemic agents and for treating Alzheimer's disease” (priority 1994, dated 1996)
Like-named read-outs stand apart in the source and are kept apart here.

Columns and labels:
Human liver cathepsin D = molecular target: T1, Human liver cathepsin D (Homo sapiens, UniProt P07339); assay: Cathepsin D inhibition, fluorometric assay (Tables 5 and 6); type: biochemical; details: for inhibition at 4.15 µg/mL (stock): Compound Stock Concentration 4.15 μg/ml; for inhibition at 8.3 µg/mL (stock): Compound Stock Concentration 8.3 μg/ml
T1 construct: purchased Athens Research and Technology, Athens, Ga; host or cells: human liver
Procedure, shortened: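 Human liver cathepsin D at 500 ng/mL in 200 mM NaOAc pH 4.5, 150 mM NaCl, incubated 30 minutes at 37° C. Reaction stopped with microsomal leucine aminopeptidase (pH 8.0), which over two hours at 37° C releases AMC from cleavage products for fluorometric reading; aminopeptidase inhibition checked with Leu-pNA.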

blood glucose level [1] = assay: Hypoglycemic activity in normal fed rats (Table 2); type: in vivo, male Sprague Dawley rats; details: Rattus norvegicus, oral
Procedure: The procedure used in this test system is described below.
(§1) The desired dose level of each test formulation was administered to four rats by oral […] at the beginning of the experiment. Blood glucose levels were determined immediately before the first dose and at 3 and 5 hours thereafter by an enzymatic procedure employing glucose oxidase and peroxidase coupled with a chromogenic oxygen acceptor. A mean was taken of the 4 values obtained before the first dose and at the 3 and 5 hour intervals.

blood glucose level [2] = assay: Hypoglycemic activity in obese diabetic Zucker rats (Table 3); type: in vivo, obese diabetic Zucker rat (Zucker Diabetic Fatty Rat); details: oral
Procedure: as §1, with “Male Sprague Dawley rats (Charles River Laboratories) weighing 175-200 g were used in this test system. […] The” for “The”
The procedure used in this test system is the same as that described for the normal fed rat test system, above. The format of Table 3 is the same as that used in Table 2.

blood glucose level [3] = assay: Hypoglycemic activity in obese diabetic mice (Table 1); type: in vivo, male viable yellow obese-diabetic mice; details: for response vs control in vivo at 50 mg/kg / response vs control in vivo at 25 mg/kg / response vs control in vivo at 10 mg/kg: Mus musculus, ip, intraperitoneal; for ability to lower blood glucose levels in mammals: compared to structurally similar compounds known in the art, in words
Procedure, shortened: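 Male viable yellow obese-diabetic mice, six per group, dosed intraperitoneally once with compound in saline containing 2% Emulphor. Blood glucose measured by glucose oxidase before dosing and at 2 and 4 h. Values are the 2 h and 4 h glucose as % of pre-dose level.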

β-amyloid protein = β-amyloid protein production inhibition in 293 751 SWE and CHO 751 SWE cells, ELISA (Table 7); type: cell-based; details: Compound Stock Concentration 10.0 μg/ml; normalized for cytotoxicity
Procedure: Two cell lines (human kidney cell line 293 and Chinese hamster ovary cell line CHO) were stably transfected with the gene for APP751 containing the double mutation Lys-651-Met-652 to Asn-651-Leu-652 (APP-751 numbering) commonly called the Swedish mutation using the method described in Citron et al., Nature 360:672-674 (1992). The transfected cell lines were designated as 293 751 SWE and CHO 751 SWE, and were plated in Corning 96 well plates at 2.5×10^4 or 1×10^4 cells per well respectively in Dulbecco's minimal essential media (DMEM) plus 10% fetal bovine serum. […] These compound stocks were prepared by dissolving a sufficient quantity of the particular compound to be tested in DMSO such that various concentrations were obtained. After this pretreatment period, the conditioned media was removed and replaced with fresh conditioned media and the cells were incubated for an additional two hours.
After treatment, plates were centrifuged in a Beckman GPR at 1200 rpm for five minutes at room temperature to pellet cellular debris from the conditioned media. From each well, 100 μL of conditioned media were transferred into an ELISA plate precoated with antibody 266 [Seubert et al., Nature, 359:325-327 (1992)] and stored at 4° C. overnight prior to the completion of the ELISA assay the next day.
Cytotoxic effects of the compounds were measured by a modification of the method of Hansen et al., J. Immun. Meth. 119:203-210 (1989). To the cells remaining in the tissue culture plate, was added 25 μL of a 3-(4,5-dimethylthiazol-2-yl)-2,5-diphenyltetrazolium bromide (MTT) stock solution (5 mg/mL) to a final concentration of 1 mg/mL. Cells were incubated at 37° C. for one hour, and cellular activity was stopped by the addition of an equal volume of MTT lysis buffer (20% w/v sodium dodecylsulfate in 50% DMF, pH 4.7). Complete extraction was achieved by overnight shaking at room temperature. The difference in the OD562nm and the OD650nm was measured in a Molecular Devices UVmax microplate reader as an indicator of the cellular viability.
The results of the β-amyloid protein ELISA were fit to a standard curve and expressed as ng/mL β-amyloid protein peptide. In order to normalize for cytotoxicity, these β-amyloid protein results were divided by the cytotoxicity results and expressed as a percentage of the results from a drug-free control.

[4] = tested on: plasma glucose concentration; assay: Long-term hypoglycemic activity, compound in diet, ZDF rats (Table 4); type: in vivo, 8 week old male Zucker Diabetic Fatty rat
Procedure: (§2) Finally, the long-term hypoglycemic activity of the compounds of the present invention was tested in yet another in vivo test system. This long-term test system entailed incorporating test compound into the test animal's diet at various concentrations (control animal's diet contained no test compound). Such diet was then fed to the test or control animals for either 14 or 21 days. Each test or control animal was then bled from the tail (200-400 μl sample of blood) at 0 (before diet started), 7, 14 and, if appropriate, 21 and 28 days after diet administration was started. Plasma samples were then obtained from each blood sample collected and the glucose concentration of such plasma samples was determined enzymatically.
(§3) Columns 4-8 provide the plasma glucose concentration at days 0, 7, 14 and, if appropriate, 21 and 28, respectively, for the animals tested. Glucose lowering was not associated with depressed diet consumption.

[5] = tested on: plasma glucose concentration; assay: Long-term hypoglycemic activity, compound in diet, A^vy /a mice (Table 4); type: in vivo, viable yellow mouse; details: 0.1% in diet, Male A^vy /a (Harlan)
Procedure: as §2, §3

[6] = 3 hrs, read-out: Percent of Initial Blood Glucose Level After 3 hrs.
[7] = 5 hrs, read-out: Percent of Initial Blood Glucose Level After 5 hrs.
[8] = 2 h, 2 hrs, read-out: Percent of Initial Blood Glucose Level After 2 hrs.
[9] = 4 h, 4 hrs, read-out: Percent of Initial Blood Glucose Level After 4 hrs.
[10] = 0.1% in diet, day 0 (before diet started)

T1 sequence (P07339 169-412 limits assumed): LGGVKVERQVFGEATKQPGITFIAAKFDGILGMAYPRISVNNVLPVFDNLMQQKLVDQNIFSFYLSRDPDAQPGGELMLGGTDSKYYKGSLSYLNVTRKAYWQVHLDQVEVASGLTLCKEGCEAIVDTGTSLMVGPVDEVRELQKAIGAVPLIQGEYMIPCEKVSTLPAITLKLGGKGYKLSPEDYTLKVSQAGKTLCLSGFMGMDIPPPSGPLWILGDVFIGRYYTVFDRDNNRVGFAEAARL
T1 sequence (P07339 65-161 limits assumed): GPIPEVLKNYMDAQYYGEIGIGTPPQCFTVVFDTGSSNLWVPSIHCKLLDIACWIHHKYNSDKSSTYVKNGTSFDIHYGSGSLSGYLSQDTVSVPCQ

SMILES	IC50 (Human liver cathepsin D) [µM]	inhibition at 4.15 µg/mL (stock) (Human liver cathepsin D) [%]	response vs control in vivo at 200 mg/kg (blood glucose level [1]; [6]) [%]	response vs control in vivo at 200 mg/kg (blood glucose level [1]; [7]) [%]	Percent of Initial Blood Glucose Level After 3 hrs. (blood glucose level [2]; 167 mg/kg) [%]	Percent of Initial Blood Glucose Level After 5 hrs. (blood glucose level [2]; 167 mg/kg) [%]	response vs control in vivo at 50 mg/kg (blood glucose level [3]; [8]) [%]	response vs control in vivo at 50 mg/kg (blood glucose level [3]; [9]) [%]	ability to lower blood glucose levels in mammals (blood glucose level [3])	inhibition at 8.3 µg/mL (stock) (Human liver cathepsin D) [%]	inhibition at 10 µg/mL (stock) (β-amyloid protein) [%]	Plasma Glucose Concentration [4, 10] [mg/dL]	Plasma Glucose Concentration ([4]; 0.1% in diet, day 7) [mg/dL]	Plasma Glucose Concentration ([4]; 0.1% in diet, day 14) [mg/dL]	Plasma Glucose Concentration ([5]; day 0 (before diet started)) [mg/dL]	Plasma Glucose Concentration ([5]; day 7) [mg/dL]	Plasma Glucose Concentration ([5]; day 14) [mg/dL]	Plasma Glucose Concentration ([5]; day 21) [mg/dL]	response vs control in vivo at 25 mg/kg (blood glucose level [3]; [8]) [%]	response vs control in vivo at 25 mg/kg (blood glucose level [3]; [9]) [%]	other results
CCCCCOc1ccc(C=C2SC(=S)NC2=O)cc1 [Example 47, 5-[(4-pentoxyphenyl)methylene]-2-thioxo-4-thiazolidinone]	5.2	60.5	82	73	74	66	99 ± 14	76 ± 8	surprising ability to lower blood glucose levels in mammals	–	–	–	–	–	–	–	–	–	–	–	–
CC(C)(C)c1cc(C=C2SC(=S)NC2=O)cc(CSc2ccccc2)c1O [Example 71]	–	–	–	–	–	–	–	–	–	94	65	311	237	232	–	–	–	–	–	–	IC50 (Human liver cathepsin D; 50% inhibition of cathepsin D): 2.1 µM; inhibition at 10 µg/mL (stock) (Human liver cathepsin D; Compound Stock Concentration 10.0 μg/ml): 76%
CCCCCOc1ccc(C=C2SC(=S)NC2=O)cc1OC [Example 45, 5-[(3-methoxy-4-pentoxyphenyl)methylene]-2-thioxo-4-thiazolidinone]	–	49.5	–	–	30	20	76 ± 7	57 ± 3	surprising ability to lower blood glucose levels in mammals	95	–	–	–	–	438	338	315	287	93 ± 4	87 ± 5	response vs control in vivo at 167 mg/kg (blood glucose level [1]; [6]): 61%; response vs control in vivo at 167 mg/kg (blood glucose level [1]; [7]): 63%; Plasma Glucose Concentration ([5]; day 28): 295 mg/dL; Plasma Glucose Concentration ([4]; 0.025% in diet, day 0 (before diet started)): 467 mg/dL; Plasma Glucose Concentration ([4]; 0.025% in diet, day 7): 451 mg/dL; Plasma Glucose Concentration ([4]; 0.025% in diet, day 14): 452 mg/dL; Plasma Glucose Concentration ([4]; 0.025% in diet, day 21): 517 mg/dL; Plasma Glucose Concentration ([4]; 0.1% in diet, day 21): 285 mg/dL
CCOc1ccc(C=C2SC(=S)NC2=O)cc1OCC [Example 38, 5-[(3,4-diethoxyphenyl)methylene]-2-thioxo-4-thiazolidinone]	–	–	90	74	–	–	–	–	–	–	–	–	–	–	340	351	328	303	69 ± 9	65 ± 7	Plasma Glucose Concentration ([5]; day 28): 331 mg/dL; response vs control in vivo at 10 mg/kg (blood glucose level [3]; [8]): 72 ± 4%; response vs control in vivo at 10 mg/kg (blood glucose level [3]; [9]): 71 ± 6%
CCCCOc1ccc(C=C2SC(=S)NC2=O)cc1OCC [Example 56, 5-[(3-ethoxy-4-butoxyphenyl)methylene]-2-thioxo-4-thiazolidinone]	12.3	73	–	–	–	–	78 ± 4	72 ± 3	surprising ability to lower blood glucose levels in mammals	–	–	–	–	–	–	–	–	–	81 ± 8	75 ± 3	ability to inhibit cathepsin D (Human liver cathepsin D; compared to structurally similar compounds known in the art, in words): surprising ability to inhibit cathepsin D levels; response vs control in vivo at 150 mg/kg (blood glucose level [1]; [6]): 79%; response vs control in vivo at 150 mg/kg (blood glucose level [1]; [7]): 65%; Percent of Initial Blood Glucose Level After 3 hrs. (blood glucose level [2]; 50 mg/kg): 79%; Percent of Initial Blood Glucose Level After 5 hrs. (blood glucose level [2]; 50 mg/kg): 66%; response vs control in vivo at 10 mg/kg (blood glucose level [3]; [8]): 94 ± 4%; response vs control in vivo at 10 mg/kg (blood glucose level [3]; [9]): 97 ± 4%
CCCCCOc1c(OC)cc(C=C2SC(=S)NC2=O)cc1OC [Example 70, 5-[(3,5-dimethoxy-4-pentoxyphenyl)methylene]-2-thioxo-4-thiazolidinone]	5.4	66	–	–	–	–	–	–	–	–	38	300	190	195	–	–	–	–	–	–	–
